{"source": "paper PMC4523432", "about": "(Molecular oncology, 2015)", "biological_target": "T1, Musashi-1 (MSI1) (Mus musculus, UniProt Q61474)", "T1 sequence (Q61474 20-107)": "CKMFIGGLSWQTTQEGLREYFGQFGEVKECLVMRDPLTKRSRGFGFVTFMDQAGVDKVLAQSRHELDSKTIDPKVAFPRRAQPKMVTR", "test": "SPR on immobilized GB1-RBD1, 1H-15N HSQC NMR titration", "format": "binding", "data": [{"smiles": "Cc1cc2c(C(C)C)c(O)c(O)c(C=O)c2c(O)c1-c1c(C)cc2c(C(C)C)c(O)c(O)c(C=O)c2c1O", "note": "[(–)-G, (–)-gossypol]", "values": [{"measurement": "Ki", "result": "476 ± 273", "unit": "nM"}]}]}
